Data published in paper PMC8648123, “An atypical EhGEF regulates phagocytosis in Entamoeba histolytica through EhRho1” (PLoS Pathogens, 2021).

Columns and labels:
[1] = target: T1, EhGEF (Entamoeba histolytica, UniProt C4LYE4); assay: tryptophan fluorescence quenching titration; type: binding
T1 construct: gene EHI_008090; recombinant protein lacking PH domain (EhGEFΔPH), putative GEF domain

[2] = target: GST-tagged EhRho1 (wild type) (Entamoeba histolytica)

## Nc1nc2c(ncn2[C@@H]2O[C@H](COP(=O)(O)OP(=O)(O)OP(=O)(O)O)[C@@H](O)[C@H]2O)c(=O)[nH]1 [GTP]
[1]
  Kd: 298 µM

B1: HA-tagged EhGEF (full length wild type) (natural protein)
chain: MSEELKISVESLRPALFEGWGKKQGGSVKTWKKRWFVLKDNRLWYFASKTAEEAKGFIELPPGTETKDVSQNKKFMFSINSRNTKGSRVFYIVTENSVDHATFFDAVRKVLNKSSPSSVPAAQSTTPVNVPKAENQFTLQGNNSSTGLSTSTQPVTSTIPPMADAVNIPNSLQPKCDGRKNINKIKAKISWLQVEGENVVEFWKYWMDSTPQSDALEVGQSIQFMLVVSGNTEKLSWRVFGPQGALIQNMVDFFWNVGAPDEEIDHLNNLGCQINPSEIGSWIDMSVMNGMDGGWFFKGDLVCDVIRDTADKCEYAERLITWAKEHGLNYLCQMGRDMGATPPRQSEFRFKLDGVISSRMEKVHSAFTTFGFPPIPVNIVEILTNLPPVYTYFYLCVIVSSEGFVKISILVPAPKQDVVDAFLFAMSDVKDTHIALHKDITNTLGNTPLFVEYCYLNPGYGYEVYKEGADVLVHYNLGSESR
[2]
  MANT-GDP dissociation from recombinant EhRho1 in presence of HA-EhGEF, compared with HsRhoA and EhRab1a: 2 fold
